Source: US9163256B2, “Mutant receptors and their use in a nuclear receptor-based inducible gene expression system” (priority 2004, dated 2015)
Where two headings read alike, the source gives them in different places.

Legend:
CfEcR-DEF mutant L132M = CfEcR-DEF mutant L132M (Choristoneura fumiferana, UniProt O77255, L415M); assay: cell-based; type: cell-based; conditions: for Rel Max FI: mutant L132M; for Emax: NIH3T3, 40 h, read-out: Rel Max FI, mutant L132M
Protocol: (§1) This construct was prepared in the same way as in switch 1.1 above except wild-type CfEcR-DEF was replaced with mutant CfEcR-DEF comprising a ligand binding domain comprising a substitution mutation selected from Table 1 below.
(§2) DNAs were transfected into mouse NIH3T3 cells (ATCC) as follows. Standard methods for culture and maintenance of the cells were followed. Cells were harvested and plated 96-well plates at 2,500 cells per well, in 50 μL of growth medium containing 10% fetal bovine serum (FBS). Twenty-four hours later, the cells were treated with 35 μL of serum-free growth medium containing either dimethylsulfoxide (DMSO; control) or a DMSO solution of ligand. The cells were then transfected using Superfect (Qiagen Inc.) transfection reagent. For each well, 0.625 μL of Superfect was mixed with 14.2 μL of serum-free growth medium. 0.16 μg of reporter construct and 0.04 μg of each receptor construct were added to the transfection reagent mix. The contents of the transfection mix were mixed in a vortex mixer and let stand at room temperature for 30 minutes. At the end of incubation, 15 μL of transfection mix was added to the cells. The cells were maintained at 37° C. and 5% CO2 for 48 hours in 5% FBS.
(§3) Reporter Assays: Cells were harvested 40 hours after adding ligands. 125 μL of passive lysis buffer (part of Dual-Luciferase reporter assay system from Promega Corporation) were added to each well of the […] plate. The plates were placed on a rotary shaker for 15 minutes. Twenty μL of lysate were assayed. Luciferase activity was measured using Dual-Luciferase reporter assay system from Promega Corporation following the manufacturer's instructions. Fold induction (FI) activities were calculated by dividing relative light units (“RLU”) in ligand treated cells with RLU in DMSO treated cells (untreated control).

CfEcR-DEF mutant F48N = CfEcR-DEF mutant F48N (Choristoneura fumiferana, UniProt O77255, F331N); assay: GAL4-driven luciferase reporter assay in NIH3T3 cells; type: cell-based
Protocol: as §1, §2, §3

[1] = molecular target: CfEcR-DEF mutant V107I/Y127E/T52V (Choristoneura fumiferana, UniProt O77255, T335V/V390I/Y410E); assay: as above; type: cell-based
Protocol: as §1, §2, §3

[2] = molecular target: CfEcR-DEF mutant T52V/A110P (Choristoneura fumiferana, UniProt O77255, A393P/T335V); assay: as above; type: cell-based
Protocol: as §1, §2, §3

CfEcR-DEF mutant M125W = CfEcR-DEF mutant M125W (Choristoneura fumiferana, UniProt O77255, M408W); assay: as above; type: cell-based
Protocol: as §1, §2, §3

CfEcR-DEF mutant F109W = CfEcR-DEF mutant F109W (Choristoneura fumiferana, UniProt O77255, F392W); assay: cell-based
Protocol: as §1, §2, §3

[3] = molecular target: CfEcR-DEF mutant N119F/V96T (Choristoneura fumiferana, UniProt O77255, N402F/V379T); assay: cell-based
Protocol: as §1, §2, §3

CfEcR-DEF mutant A110P = CfEcR-DEF mutant A110P (Choristoneura fumiferana, UniProt O77255, A393P); assay: cell-based
Protocol: as §1, §2, §3

CfEcR-DEF mutant M54W = CfEcR-DEF mutant M54W (Choristoneura fumiferana, UniProt O77255, M337W); assay: cell-based
Protocol: as §1, §2, §3

CfEcR-DEF mutant A110E = CfEcR-DEF mutant A110E (Choristoneura fumiferana, UniProt O77255, A393E); assay: cell-based
Protocol: as §1, §2, §3

CfEcR-DEF mutant F109N = CfEcR-DEF mutant F109N (Choristoneura fumiferana, UniProt O77255, F392N); assay: cell-based
Protocol: as §1, §2, §3

CfEcR-DEF mutant V96W = CfEcR-DEF mutant V96W (Choristoneura fumiferana, UniProt O77255, V379W); assay: cell-based
Protocol: as §1, §2, §3

CfEcR-DEF mutant L234M = CfEcR-DEF mutant L234M (Choristoneura fumiferana, UniProt O77255, L517M); assay: cell-based
Protocol: as §1, §2, §3

CfEcR-DEF mutant W238P = CfEcR-DEF mutant W238P (Choristoneura fumiferana, UniProt O77255, W521P); assay: cell-based
Protocol: as §1, §2, §3

CfEcR-DEF mutant R95W = CfEcR-DEF mutant R95W (Choristoneura fumiferana, UniProt O77255, R378W); assay: cell-based
Protocol: as §1, §2, §3

CfEcR-DEF mutant M125C = CfEcR-DEF mutant M125C (Choristoneura fumiferana, UniProt O77255, M408C); assay: cell-based
Protocol: as §1, §2, §3

CfEcR-DEF mutant F48L = CfEcR-DEF mutant F48L (Choristoneura fumiferana, UniProt O77255, F331L); assay: cell-based
Protocol: as §1, §2, §3

CfEcR-DEF mutant L132V = CfEcR-DEF mutant L132V (Choristoneura fumiferana, UniProt O77255, L415V); assay: cell-based
Protocol: as §1, §2, §3

CfEcR-DEF mutant Y120W = CfEcR-DEF mutant Y120W (Choristoneura fumiferana, UniProt O77255, Y403W); assay: cell-based
Protocol: as §1, §2, §3

CfEcR-DEF mutant A110W = CfEcR-DEF mutant A110W (Choristoneura fumiferana, UniProt O77255, A393W); assay: cell-based
Protocol: as §1, §2, §3

CfEcR-DEF mutant M125P = CfEcR-DEF mutant M125P (Choristoneura fumiferana, UniProt O77255, M408P); assay: cell-based
Protocol: as §1, §2, §3

[4] = relative to max fold induction of GS-E ligand
[5] = NIH3T3, 40 h, read-out: Rel Max FI

CfEcR-DEF mutant V96W, sequence (O77255 entry or part of it V379W): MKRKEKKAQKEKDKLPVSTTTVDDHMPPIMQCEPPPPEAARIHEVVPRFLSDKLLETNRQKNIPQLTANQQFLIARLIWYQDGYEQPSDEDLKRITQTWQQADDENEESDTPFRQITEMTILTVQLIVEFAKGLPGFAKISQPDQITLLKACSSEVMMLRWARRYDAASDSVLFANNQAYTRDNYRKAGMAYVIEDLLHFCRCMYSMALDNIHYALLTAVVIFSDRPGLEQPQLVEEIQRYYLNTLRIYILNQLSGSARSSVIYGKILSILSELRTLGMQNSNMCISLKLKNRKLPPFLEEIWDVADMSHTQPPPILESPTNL
CfEcR-DEF mutant V96W, sequence (P28702 299-449, further chain): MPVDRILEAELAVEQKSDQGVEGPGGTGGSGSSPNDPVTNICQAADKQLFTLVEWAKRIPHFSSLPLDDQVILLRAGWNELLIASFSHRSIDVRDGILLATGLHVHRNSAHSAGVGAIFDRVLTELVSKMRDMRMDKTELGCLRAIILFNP
CfEcR-DEF mutant F48N, sequence (O77255 entry or part of it F331N): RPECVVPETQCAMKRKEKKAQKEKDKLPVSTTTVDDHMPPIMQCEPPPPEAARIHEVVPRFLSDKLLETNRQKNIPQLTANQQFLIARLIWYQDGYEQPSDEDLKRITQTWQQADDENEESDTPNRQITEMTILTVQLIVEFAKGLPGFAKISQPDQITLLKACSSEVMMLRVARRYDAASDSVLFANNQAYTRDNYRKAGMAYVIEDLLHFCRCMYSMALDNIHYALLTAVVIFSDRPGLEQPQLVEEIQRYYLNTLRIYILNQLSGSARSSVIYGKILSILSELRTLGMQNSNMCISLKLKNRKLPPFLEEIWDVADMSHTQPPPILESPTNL
CfEcR-DEF mutant F48N, sequence (P28702 299-449, further chain): as the sequence (P28702 299-449, further chain) above
CfEcR-DEF mutant M54W, sequence (O77255 entry or part of it M337W): as the sequence (O77255 entry or part of it F331N) above, with N125F, M131W counted along it
CfEcR-DEF mutant M54W, sequence (P28702 299-449, further chain): as the sequence (P28702 299-449, further chain) above
CfEcR-DEF mutant T52V/A110P, sequence (O77255 entry or part of it T335V/A393P): as the sequence (O77255 entry or part of it V379W) above, with T117V, W161V, A175P counted along it
CfEcR-DEF mutant T52V/A110P, sequence (P28702 299-449, stated change not applied, further chain): as the sequence (P28702 299-449, further chain) above
CfEcR-DEF mutant L132M, sequence (O77255 entry or part of it L415M): as the sequence (O77255 entry or part of it F331N) above, with N125F, L209M counted along it
CfEcR-DEF mutant L132M, sequence (P28702 298-449, further chain): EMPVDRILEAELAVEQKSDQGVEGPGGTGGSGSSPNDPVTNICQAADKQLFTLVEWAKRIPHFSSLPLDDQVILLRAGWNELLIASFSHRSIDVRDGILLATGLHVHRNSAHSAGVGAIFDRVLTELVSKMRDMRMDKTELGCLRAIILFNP
CfEcR-DEF mutant M125C, sequence (O77255 entry or part of it M408C): as the sequence (O77255 entry or part of it F331N) above, with N125F, M202C counted along it
CfEcR-DEF mutant M125C, sequence (P28702 299-449, further chain): as the sequence (P28702 299-449, further chain) above
CfEcR-DEF mutant Y120W, sequence (O77255 entry or part of it Y403W): as the sequence (O77255 entry or part of it V379W) above, with W161V, Y185W counted along it
CfEcR-DEF mutant Y120W, sequence (P28702 299-449, further chain): as the sequence (P28702 299-449, further chain) above
CfEcR-DEF mutant R95W, sequence (O77255 entry or part of it R378W): as the sequence (O77255 entry or part of it V379W) above, with R160W, W161V counted along it
CfEcR-DEF mutant R95W, sequence (P28702 299-449, further chain): as the sequence (P28702 299-449, further chain) above
CfEcR-DEF mutant M125W, sequence (O77255 entry or part of it M408W): as the sequence (O77255 entry or part of it F331N) above, with N125F, M202W counted along it
CfEcR-DEF mutant M125W, sequence (P28702 299-449, further chain): as the sequence (P28702 299-449, further chain) above

In the case of CC(C)CC[C@@H](O)[C@](C)(O)[C@H]1CC[C@@]2(O)C3=CC(=O)[C@@H]4C[C@@H](O)[C@@H](O)C[C@]4(C)[C@H]3CC[C@]12C [PonA, ponasterone A], the “Rel Max FI” value (CfEcR-DEF mutant L132M) is reported as 0.01, the “Rel Max FI” value (CfEcR-DEF mutant L132M; [4]) is reported as 0.57 and the “Rel Max FI” value (CfEcR-DEF mutant F48N; mutant F48N) is reported as 0.17. For the same compound, the EC50 (CfEcR-DEF mutant F48N; mutant F48N, read-out: EC50) was about 20 µM, the EC50 ([1]; mutant V107I/Y127E/T52V, read-out: EC50) was about 1000 nM and the “Rel Max FI” value ([1]; mutant V107I/Y127E/T52V, relative to max fold induction of GS-E ligand) was 0.67. The EC50 ([2]; mutant T52V/A110P, read-out: EC50) was over 33000 nM, the “Rel Max FI” value ([2]; mutant T52V/A110P, relative to max fold induction of GS-E ligand) was 0 and the “Rel Max FI” value (CfEcR-DEF mutant M125W; mutant M125W) was 0. For the same compound, the EC50 (CfEcR-DEF mutant M125W; mutant M125W, read-out: EC50) was over 33 µM, the EC50 (CfEcR-DEF mutant F109W; mutant F109W, read-out: EC50) was 4060 nM and the “Rel Max FI” value (CfEcR-DEF mutant F109W; mutant F109W, relative to max fold induction of GS-E ligand) was 0.08. The EC50 ([3]; mutant N119F/V96T, read-out: EC50) was about 300 nM, the “Rel Max FI” value ([3]; mutant N119F/V96T, relative to max fold induction of GS-E ligand) was 2.02 and the EC50 (CfEcR-DEF mutant A110P; mutant A110P, read-out: EC50) was over 33000 nM. For the same compound, the “Rel Max FI” value (CfEcR-DEF mutant A110P; mutant A110P, relative to max fold induction of GS-E ligand) was 0, the “Rel Max FI” value (CfEcR-DEF mutant M54W; mutant M54W) was 0.46 and the EC50 (CfEcR-DEF mutant M54W; mutant M54W, read-out: EC50) was about 10 µM. The EC50 (CfEcR-DEF mutant A110E; mutant A110E, read-out: EC50) was about 10 µM, the “Rel Max FI” value (CfEcR-DEF mutant A110E; mutant A110E, relative to max fold induction of GS-E ligand) was 1.09 and the “Rel Max FI” value (CfEcR-DEF mutant F109N; mutant F109N) was 0. The EC50 (CfEcR-DEF mutant F109N; mutant F109N, read-out: EC50) was over 33 µM, the “Rel Max FI” value (CfEcR-DEF mutant V96W; mutant V96W) was 0.83 and the EC50 (CfEcR-DEF mutant V96W; mutant V96W, read-out: EC50) was about 3.3 µM. The “Rel Max FI” value (CfEcR-DEF mutant L234M; mutant L234M) was 0.02, the EC50 (CfEcR-DEF mutant L234M; mutant L234M, read-out: EC50) was over 33000 nM and the EC50 (CfEcR-DEF mutant W238P; mutant W238P, read-out: EC50) was about 3300 nM. The “Rel Max FI” value (CfEcR-DEF mutant W238P; mutant W238P, relative to max fold induction of GS-E ligand) was 0.73, the “Rel Max FI” value (CfEcR-DEF mutant R95W; mutant R95W) was 0 and the EC50 (CfEcR-DEF mutant R95W; mutant R95W, read-out: EC50) was over 33 µM. The “Rel Max FI” value (CfEcR-DEF mutant M125C; mutant M125C) was 0.28, the EC50 (CfEcR-DEF mutant F48L; mutant F48L, read-out: EC50) was about 10 µM and the “Rel Max FI” value (CfEcR-DEF mutant F48L; mutant F48L, relative to max fold induction of GS-E ligand) was 0.59. For the same compound, the EC50 (CfEcR-DEF mutant L132V; mutant L132V, read-out: EC50) was 6.56 µM, the “Rel Max FI” value (CfEcR-DEF mutant L132V; mutant L132V, relative to max fold induction of GS-E ligand) was 0.57 and the “Rel Max FI” value (CfEcR-DEF mutant Y120W; mutant Y120W) was 0.69. The EC50 (CfEcR-DEF mutant Y120W; mutant Y120W, read-out: EC50) was about 10 µM, the “Rel Max FI” value (CfEcR-DEF mutant A110W; mutant A110W) was 0.01 and the EC50 (CfEcR-DEF mutant A110W; mutant A110W, read-out: EC50) was over 33000 nM. The “Rel Max FI” value (CfEcR-DEF mutant M125P; mutant M125P) was 0.7 and the EC50 (CfEcR-DEF mutant M125P; mutant M125P, read-out: EC50) was over 33 µM.

Compound CCc1cccc(C(=O)NN(C(=O)c2cc(C)cc(C)c2)C(C)(C)C)c1C [RG-101691, 3,5-Dimethyl-benzoic acid N-tert-butyl-N′-(3-ethyl-2-methyl-benzoyl)-hydrazide] has an Emax (CfEcR-DEF mutant L132M) of 8%, an Emax (CfEcR-DEF mutant L132M; [4]) of 77% and an EC50 (CfEcR-DEF mutant F48N) of 1.73 µM. It also gave an Emax (CfEcR-DEF mutant F48N; [5]) of 88%, an EC50 [1] of 20 nM and an Emax [1, 5] of 88%. For the same compound, the EC50 [2] was 240 nM, the Emax [2, 5] was 66% and the EC50 (CfEcR-DEF mutant M125W) was 4.94 µM. For the same compound, the Emax (CfEcR-DEF mutant M125W; [5]) was 74%, the EC50 (CfEcR-DEF mutant F109W) was 490 nM and the Emax (CfEcR-DEF mutant F109W; [5]) was 79%. It also gave an EC50 [3] of 3630 nM, an Emax [3, 5] of 13% and an EC50 (CfEcR-DEF mutant A110P) of 670 nM. The Emax (CfEcR-DEF mutant A110P; [5]) was 89%, the EC50 (CfEcR-DEF mutant M54W) was 1.63 µM and the Emax (CfEcR-DEF mutant M54W; [5]) was 75%. For the same compound, the EC50 (CfEcR-DEF mutant A110E) was 0.85 µM, the Emax (CfEcR-DEF mutant A110E; [5]) was 103% and the EC50 (CfEcR-DEF mutant F109N) was 3.95 µM. The Emax (CfEcR-DEF mutant F109N; [5]) was 85%, the EC50 (CfEcR-DEF mutant V96W) was 3.61 µM and the Emax (CfEcR-DEF mutant V96W; [5]) was 75%. For the same compound, the EC50 (CfEcR-DEF mutant L234M) was 1790 nM, the Emax (CfEcR-DEF mutant L234M; [5]) was 77% and the EC50 (CfEcR-DEF mutant W238P) was 650 nM. It also gave an Emax (CfEcR-DEF mutant W238P; [5]) of 91%, an EC50 (CfEcR-DEF mutant R95W) of about 10 µM and an Emax (CfEcR-DEF mutant R95W; [5]) of 37%. For the same compound, the EC50 (CfEcR-DEF mutant M125C; EC50, mutant M125C) was at least 33 µM, the Emax (CfEcR-DEF mutant M125C; [5]) was 62% and the EC50 (CfEcR-DEF mutant F48L) was 0.3 µM. It also gave an Emax (CfEcR-DEF mutant F48L; [5]) of 81%, an EC50 (CfEcR-DEF mutant L132V) of 0.66 µM and an Emax (CfEcR-DEF mutant L132V; [5]) of 77%. It also gave an EC50 (CfEcR-DEF mutant Y120W) of 9.76 µM, an Emax (CfEcR-DEF mutant Y120W; [5]) of 89% and an EC50 (CfEcR-DEF mutant A110W) of 1060 nM. For the same compound, the Emax (CfEcR-DEF mutant A110W; [5]) was 80%, the EC50 (CfEcR-DEF mutant M125P) was over 33 µM and the Emax (CfEcR-DEF mutant M125P; [5]) was 525%.
